From patent US20130030001A1 (priority 2008, published 2013)
Counter-ions that a name gives are not always drawn.

Biological target: T1, human muscarinic acetylcholine M3 receptor (Homo sapiens, UniProt P20309)
T1 construct: expressed in transfected cells; host or cells: CHO-K1 (Chinese Hamster Ovary) cell membranes
Experiment: biochemical
Assay type: binding
Settings: M3 binding IC50

T1 sequence (P20309 whole entry): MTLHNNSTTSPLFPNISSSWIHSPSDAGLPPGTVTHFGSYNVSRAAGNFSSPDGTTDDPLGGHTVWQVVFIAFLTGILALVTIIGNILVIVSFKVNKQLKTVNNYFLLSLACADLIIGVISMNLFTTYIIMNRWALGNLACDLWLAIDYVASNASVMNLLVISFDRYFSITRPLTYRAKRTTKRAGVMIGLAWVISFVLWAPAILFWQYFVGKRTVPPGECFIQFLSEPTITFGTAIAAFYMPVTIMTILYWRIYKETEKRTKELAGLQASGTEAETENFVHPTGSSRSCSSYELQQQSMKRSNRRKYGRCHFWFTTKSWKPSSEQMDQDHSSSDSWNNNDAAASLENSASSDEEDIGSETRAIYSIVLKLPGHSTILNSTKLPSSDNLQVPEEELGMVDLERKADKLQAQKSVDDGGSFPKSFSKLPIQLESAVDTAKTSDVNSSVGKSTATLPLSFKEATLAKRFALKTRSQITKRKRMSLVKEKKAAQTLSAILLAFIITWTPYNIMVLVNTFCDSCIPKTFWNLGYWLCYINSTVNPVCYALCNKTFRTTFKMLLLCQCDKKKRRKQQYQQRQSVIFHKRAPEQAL

Row | Structure (SMILES) | IC50
1 | O=C(C[N+]12CCC(CC1)[C@@H](OC(=O)C1(c3ccccc3)CCCCCC1)C2)Nc1ccnnc1 [Example 27, (R)-3-(1-phenyl-cycloheptanecarbonyloxy)-1-(pyridazin-4-ylcarbamoylmethyl)-1-azonia-bicyclo[2.2.2]octane formate] | 2 to 10 nM
2 | O=C(C[N+]12CCC(CC1)[C@@H](OC(=O)C1(c3ccccc3)CCCCCC1)C2)Nc1ncccc1F [Example 53, (R)-1-[(3-Fluoro-pyridin-2-ylcarbamoyl)-methyl]-3-(1-phenyl-cycloheptanecarbonyloxy)-1-azonia-bicyclo[2.2.2]octane chloride] | 2 to 10 nM
3 | Cc1ccc(NC(=O)C[N+]23CCC(CC2)[C@@H](OC(=O)C2(c4ccccc4)CCCCCC2)C3)nn1 [Example 49, (R)-1-[(6-Methyl-pyridazin-3-ylcarbamoyl)-methyl]-3-(1-phenyl-cycloheptanecarbonyloxy)-1-azonia-bicyclo[2.2.2]octane bromide] | < 2 nM
4 | O=C(C[N+]12CCC(CC1)[C@@H](OC(=O)C1(c3ccccc3)CCCCCC1)C2)Nc1ccccc1F [Example 23, (R)-1-[(2-Fluoro-phenylcarbamoyl)-methyl]-3-(1-phenyl-cycloheptanecarbonyloxy)-1-azonia-bicyclo[2.2.2]octane bromide] | < 2 nM
5 | Cc1cc(NC(=O)C[N+]23CCC(CC2)[C@@H](OC(=O)C2(c4cccs4)CCCCCC2)C3)no1 [Example 6, (R)-1-[(5-Methyl-isoxazol-3-ylcarbamoyl)-methyl]-3-(1-thiophen-2-yl-cycloheptanecarbonyloxy)-1-azonia-bicyclo[2.2.2]octane bromide] | < 2 nM
6 | O=C(C[N+]12CCC(CC1)[C@@H](OC(=O)C1(c3cccs3)CCCCCC1)C2)Nc1cccc(F)c1 [Example 8, (R)-1-[(3-Fluoro-phenylcarbamoyl)-methyl]-3-(1-thiophen-2-yl-cycloheptanecarbonyloxy)-1-azonia-bicyclo[2.2.2]octane bromide] | < 2 nM
7 | O=C(C[N+]12CCC(CC1)[C@@H](OC(=O)C1(c3ccccc3)CCCCCC1)C2)Nc1ccc(C(F)(F)F)nn1 [Example 3, (R)-3-(1-Phenyl-cycloheptanecarbonyloxy)-1-[(6-trifluoromethyl-pyridazin-3-ylcarbamoyl)-methyl]-1-azonia-bicyclo[2.2.2]octane bromide] | 2 to 10 nM
8 | O=C(C[N+]12CCC(CC1)[C@@H](OC(=O)C1(c3ccccc3)CCCCCC1)C2)Nc1cccc(F)c1F [Example 24, (R)-1-[(2,3-Difluoro-phenylcarbamoyl)-methyl]-3-(1-phenyl-cycloheptanecarbonyloxy)-1-azonia-bicyclo[2.2.2]octane bromide] | < 2 nM
9 | O=C(C[N+]12CCC(CC1)[C@@H](OC(=O)C1(c3ccccc3)CCCCCC1)C2)Nc1ncccn1 [Example 50, (R)-3-(1-Phenyl-cycloheptanecarbonyloxy)-1-(pyrimidin-2-ylcarbamoylmethyl)-1-azonia-bicyclo[2.2.2]octane chloride] | < 2 nM
10 | O=C(C[N+]12CCC(CC1)[C@@H](OC(=O)C1(c3ccccc3)CCCCCC1)C2)Nc1ccncc1 [Example 16, (R)-3-(1-Phenyl-cycloheptanecarbonyloxy)-1-(pyridin-4-ylcarbamoylmethyl)-1-azonia-bicyclo[2.2.2]octane chloride] | < 2 nM
11 | O=C(C[N+]12CCC(CC1)[C@@H](OC(=O)C1(c3ccccc3)CCCCCC1)C2)Nc1ccncn1 [Example 22, (R)-3-(1-Phenyl-cycloheptanecarbonyloxy)-1-(pyrimidin-4-ylcarbamoylmethyl)-1-azonia-bicyclo[2.2.2]octane chloride] | < 2 nM
12 | Cc1cc(NC(=O)C[N+]23CCC(CC2)[C@@H](OC(=O)C2(c4ccccc4)CCCCCC2)C3)ncn1 [Example 59, (R)-1-[(6-Methyl-pyrimidin-4-ylcarbamoyl)-methyl]-3-(1-phenyl-cycloheptanecarbonyloxy)-1-azonia-bicyclo[2.2.2]octane chloride] | 2 to 10 nM
13 | O=C(C[N+]12CCC(CC1)[C@@H](OC(=O)C1(c3ccccc3)CCCCCC1)C2)Nc1cc(F)cc(F)c1 [Example 35, (R)-1-[(3,5-Difluoro-phenylcarbamoyl)-methyl]-3-(1-phenyl-cycloheptanecarbonyloxy)-1-azonia-bicyclo[2.2.2]octane bromide] | 2 to 10 nM
14 | O=C(O[C@H]1C[N+]2(CCOc3cccnc3)CCC1CC2)C1(c2ccccc2)CCCCCC1 [Example 29, (R)-3-(1-Phenyl-cycloheptanecarbonyloxy)-1-[2-(pyridin-3-yloxy)-ethyl]-1-azonia-bicyclo[2.2.2]octane formate] | 2 to 10 nM
15 | Cc1ccc(NC(=O)C[N+]23CCC(CC2)[C@@H](OC(=O)C2(c4ccccc4)CCCCCC2)C3)nc1 [Example 18, (R)-1-[(5-Methyl-pyridin-2-ylcarbamoyl)-methyl]-3-(1-phenyl-cycloheptanecarbonyloxy)-1-azonia-bicyclo[2.2.2]octane chloride] | < 2 nM
16 | O=C(C[N+]12CCC(CC1)[C@@H](OC(=O)C1(c3ccccc3)CCCCCC1)C2)NCCOc1cccc(F)c1 [Example 34, (R)-1-{[2-(3-Fluoro-phenoxy)-ethylcarbamoyl]-methyl}-3-(1-phenyl-cycloheptanecarbonyloxy)-1-azonia-bicyclo[2.2.2]octane bromide] | 2 to 10 nM

Row | Structure (SMILES) | IC50
17 | Cc1cccc(NC(=O)C[N+]23CCC(CC2)[C@@H](OC(=O)C2(c4ccccc4)CCCCCC2)C3)n1 [Example 30, (R)-1-[(6-Methyl-pyridin-2-ylcarbamoyl)-methyl]-3-(1-phenyl-cycloheptanecarbonyloxy)-1-azonia-bicyclo[2.2.2]octane chloride] | < 2 nM
18 | O=C(C[N+]12CCC(CC1)[C@@H](OC(=O)C1(c3ccccc3)CCCCCC1)C2)Nc1noc2ccccc12 [Example 4, (R)-1-(Benzo[d]isoxazol-3-ylcarbamoylmethyl)-3-(1-phenyl-cycloheptanecarbonyloxy)-1-azonia-bicyclo[2.2.2]octane chloride] | < 2 nM
19 | O=C(O[C@H]1C[N+]2(CCc3ccc4c(c3)CCO4)CCC1CC2)C1(c2ccccc2)CCCCCC1 [Example 25, (R)-1-[2-(2,3-Dihydro-benzofuran-5-yl)-ethyl]-3-(1-phenyl-cycloheptanecarbonyloxy)-1-azonia-bicyclo[2.2.2]octane formate] | < 2 nM
20 | O=C(C[N+]12CCC(CC1)[C@@H](OC(=O)C1(c3ccccc3)CCCCCC1)C2)Nc1cncc(F)c1 [Example 28, (R)-1-[(5-Fluoro-pyridin-3-ylcarbamoyl)-methyl]-3-(1-phenyl-cycloheptanecarbonyloxy)-1-azonia-bicyclo[2.2.2]octane chloride] | 2 to 10 nM
21 | O=C(C[N+]12CCC(CC1)[C@@H](OC(=O)C1(c3ccccc3)CCCCCC1)C2)Nc1cccc(C(F)(F)F)n1 [Example 43, (R)-3-(1-Phenyl-cycloheptanecarbonyloxy)-1-[(6-trifluoromethyl-pyridin-2-ylcarbamoyl)-methyl]-1-azonia-bicyclo[2.2.2]octane chloride] | 2 to 10 nM
22 | N#Cc1ccc(COCC[N+]23CCC(CC2)[C@@H](OC(=O)C2(c4ccccc4)CCCCCC2)C3)cc1 [Example 42, (R)-1-[2-(4-Cyano-benzyloxy)-ethyl]-3-(1-phenyl-cycloheptanecarbonyloxy)-1-azonia-bicyclo[2.2.2]octane bromide] | 2 to 10 nM
23 | Cc1ccc(NC(=O)C[N+]23CCC(CC2)[C@@H](OC(=O)C2(c4ccccc4)CCCCCC2)C3)cn1 [Example 1, (R)-1-[(6-Methyl-pyridin-3-ylcarbamoyl)-methyl]-3-(1-phenyl-cycloheptanecarbonyloxy)-1-azonia-bicyclo[2.2.2]octane chloride] | < 2 nM
24 | O=C(C[N+]12CCC(CC1)[C@@H](OC(=O)C1(c3ccccc3)CCCCCC1)C2)Nc1ncns1 [Example 56, (R)-3-(1-Phenyl-cycloheptanecarbonyloxy)-1-([1,2,4]thiadiazol-5-ylcarbamoylmethyl)-1-azonia-bicyclo[2.2.2]octane chloride] | 2 to 10 nM
25 | O=C(C[N+]12CCC(CC1)[C@@H](OC(=O)C1(c3ccccc3)CCCCCC1)C2)Nc1cc(F)ccc1F [Example 41, (R)-1-[(2,5-Difluoro-phenylcarbamoyl)-methyl]-3-(1-phenyl-cycloheptanecarbonyloxy)-1-azonia-bicyclo[2.2.2]octane bromide] | 2 to 10 nM
26 | O=C(C[N+]12CCC(CC1)[C@@H](OC(=O)C1(c3cccs3)CCCCCC1)C2)Nc1noc2ccccc12 [Example 10, (R)-1-(Benzo[d]isoxazol-3-ylcarbamoylmethyl)-3-(1-thiophen-2-yl-cycloheptanecarbonyloxy)-1-azonia-bicyclo[2.2.2]octane chloride] | < 2 nM
27 | Cc1ccccc1NC(=O)C[N+]12CCC(CC1)[C@@H](OC(=O)C1(c3ccccc3)CCCCCC1)C2 [Example 31, (R)-3-(1-Phenyl-cycloheptanecarbonyloxy)-1-(o-tolylcarbamoyl-methyl)-1-azonia-bicyclo[2.2.2]octane bromide] | 2 to 10 nM
28 | Cc1cnc(NC(=O)C[N+]23CCC(CC2)[C@@H](OC(=O)C2(c4cccs4)CCCCCC2)C3)cn1 [Example 9, (R)-1-[(5-Methyl-pyrazin-2-ylcarbamoyl)-methyl]-3-(1-thiophen-2-yl-cycloheptanecarbonyloxy)-1-azonia-bicyclo[2.2.2]octane bromide] | < 2 nM
29 | Cc1cccc(NC(=O)C[N+]23CCC(CC2)[C@@H](OC(=O)C2(c4ccccc4)CCCCCC2)C3)c1 [Example 47, (R)-3-(1-Phenyl-cycloheptanecarbonyloxy)-1-(m-tolylcarbamoyl-methyl)-1-azonia-bicyclo[2.2.2]octane bromide] | 2 to 10 nM
30 | COc1ccc(COCC[N+]23CCC(CC2)[C@@H](OC(=O)C2(c4ccccc4)CCCCCC2)C3)cc1 [Example 36, (R)-1-[2-(4-methoxy-benzyloxy)-ethyl]-3-(1-phenyl-cycloheptanecarbonyloxy)-1-azonia-bicyclo[2.2.2]octane formate] | 2 to 10 nM
31 | Cc1ccc(NC(=O)C[N+]23CCC(CC2)[C@@H](OC(=O)C2(c4ccccc4)CCCCCC2)C3)cc1 [Example 46, (R)-3-(1-Phenyl-cycloheptanecarbonyloxy)-1-(p-tolylcarbamoyl-methyl)-1-azonia-bicyclo[2.2.2]octane bromide] | 2 to 10 nM

Same assay, conditions: pIC50

Row | Structure (SMILES) | IC50
32 | Cc1ccc(NC(=O)C[N+]23CCC(CC2)[C@@H](OC(=O)C2(c4ccccc4)CCCCCC2)C3)cn1 [Example 1, (R)-1-[(6-Methyl-pyridin-3-ylcarbamoyl)-methyl]-3-(1-phenyl-cycloheptanecarbonyloxy)-1-azonia-bicyclo[2.2.2]octane chloride] | 0.794 nM
